Experimental findings from patent US20260102501A1, “ANTI-CANCER NUCLEAR HORMONE RECEPTOR-TARGETING COMPOUNDS” (Nuvation Bio Inc., priority 2022, published 2026) are described below.

In test [1] the target is T1, ligand binding domain of the glucocorticoid receptor (HEK293 cells stably expressing) (Homo sapiens, UniProt P04150).
T1 sequence (P04150 524-758 limits assumed): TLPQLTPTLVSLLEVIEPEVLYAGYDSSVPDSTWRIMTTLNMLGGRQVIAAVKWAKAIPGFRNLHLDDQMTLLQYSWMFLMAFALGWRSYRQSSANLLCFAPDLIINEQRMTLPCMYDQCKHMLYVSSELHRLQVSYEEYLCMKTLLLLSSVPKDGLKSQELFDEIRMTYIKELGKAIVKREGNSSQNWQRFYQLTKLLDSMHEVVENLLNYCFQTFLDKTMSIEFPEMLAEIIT
The test is described as follows: GR antagonism assay (luciferase reporter). In general terms: In a reporter assay the amount or activity of a reporter protein is the signal.

For test [2], the target named is T2, GR (cytosol from IM-9 cells) (Homo sapiens, UniProt P04150).
T2 sequence (P04150 1-777): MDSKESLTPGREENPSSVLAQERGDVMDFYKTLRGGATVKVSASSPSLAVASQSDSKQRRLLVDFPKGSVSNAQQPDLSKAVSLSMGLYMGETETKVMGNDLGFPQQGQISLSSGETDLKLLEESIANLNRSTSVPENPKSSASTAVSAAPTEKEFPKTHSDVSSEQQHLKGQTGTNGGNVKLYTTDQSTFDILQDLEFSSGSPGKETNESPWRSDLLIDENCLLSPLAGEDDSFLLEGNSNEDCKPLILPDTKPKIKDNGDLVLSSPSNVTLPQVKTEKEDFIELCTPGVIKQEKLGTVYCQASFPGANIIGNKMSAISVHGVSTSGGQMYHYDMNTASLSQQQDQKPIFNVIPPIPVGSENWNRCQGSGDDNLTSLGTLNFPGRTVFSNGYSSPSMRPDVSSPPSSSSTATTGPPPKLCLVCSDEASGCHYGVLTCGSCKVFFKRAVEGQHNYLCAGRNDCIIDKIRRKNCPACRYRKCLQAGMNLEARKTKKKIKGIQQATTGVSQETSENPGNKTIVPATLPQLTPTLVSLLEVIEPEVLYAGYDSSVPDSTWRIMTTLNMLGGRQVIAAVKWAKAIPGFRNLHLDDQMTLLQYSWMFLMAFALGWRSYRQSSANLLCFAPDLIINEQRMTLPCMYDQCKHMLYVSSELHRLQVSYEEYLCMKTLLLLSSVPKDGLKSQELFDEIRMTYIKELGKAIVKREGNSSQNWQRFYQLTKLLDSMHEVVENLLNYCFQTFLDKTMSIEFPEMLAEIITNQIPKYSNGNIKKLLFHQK
The test is described as follows: GR binding assay (3H-Dexamethasone displacement).

Test [3] concerns the target T3, Progesterone PR-B receptors from human breast carcinoma T47D cells (Homo sapiens, UniProt P06401).
T3 sequence (P06401 1-933): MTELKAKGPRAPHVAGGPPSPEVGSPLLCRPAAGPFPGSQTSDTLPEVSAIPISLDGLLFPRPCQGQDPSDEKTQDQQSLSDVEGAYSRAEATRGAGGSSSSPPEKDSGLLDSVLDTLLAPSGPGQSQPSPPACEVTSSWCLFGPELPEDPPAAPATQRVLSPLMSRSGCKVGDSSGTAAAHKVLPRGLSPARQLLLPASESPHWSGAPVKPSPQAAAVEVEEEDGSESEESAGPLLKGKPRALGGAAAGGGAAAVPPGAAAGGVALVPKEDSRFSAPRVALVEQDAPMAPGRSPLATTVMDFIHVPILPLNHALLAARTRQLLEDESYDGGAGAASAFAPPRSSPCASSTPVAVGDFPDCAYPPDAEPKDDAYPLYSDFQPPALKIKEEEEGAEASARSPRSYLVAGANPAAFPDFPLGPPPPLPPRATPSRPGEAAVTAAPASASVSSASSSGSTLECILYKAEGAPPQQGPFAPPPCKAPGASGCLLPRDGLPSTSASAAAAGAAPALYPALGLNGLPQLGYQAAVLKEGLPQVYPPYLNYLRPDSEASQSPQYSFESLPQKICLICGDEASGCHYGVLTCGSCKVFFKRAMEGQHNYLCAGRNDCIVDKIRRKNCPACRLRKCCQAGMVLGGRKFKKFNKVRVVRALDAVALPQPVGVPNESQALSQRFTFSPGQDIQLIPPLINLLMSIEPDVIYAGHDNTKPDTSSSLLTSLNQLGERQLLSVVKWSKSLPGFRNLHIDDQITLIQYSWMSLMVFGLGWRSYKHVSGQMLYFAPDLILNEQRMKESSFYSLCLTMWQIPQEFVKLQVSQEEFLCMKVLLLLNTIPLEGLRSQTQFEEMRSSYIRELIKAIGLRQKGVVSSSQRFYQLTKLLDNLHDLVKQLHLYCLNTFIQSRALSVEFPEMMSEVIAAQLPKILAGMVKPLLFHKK
The test is described as follows: PR binding assay ([3H] Progesterone displacement).

The subject of the next test is T47D cells. In words: Cell viability assay (CellTiterGlo). In kind it is cell-based. As to conditions: Homo sapiens, 144 h, read-out: T47D (IC50, nM).
Another test has as its system LNCap cells. In words: Cell viability assay (CellTiterGlo). In kind it is cell-based. The note with it: Homo sapiens, 144 h, read-out: LNCap (IC50, nM).
The target in test [4] is T4, AR (cytosol from LnCaP cells) (Homo sapiens, UniProt P10275, T878A).
T4 sequence (P10275 1-920 T878A): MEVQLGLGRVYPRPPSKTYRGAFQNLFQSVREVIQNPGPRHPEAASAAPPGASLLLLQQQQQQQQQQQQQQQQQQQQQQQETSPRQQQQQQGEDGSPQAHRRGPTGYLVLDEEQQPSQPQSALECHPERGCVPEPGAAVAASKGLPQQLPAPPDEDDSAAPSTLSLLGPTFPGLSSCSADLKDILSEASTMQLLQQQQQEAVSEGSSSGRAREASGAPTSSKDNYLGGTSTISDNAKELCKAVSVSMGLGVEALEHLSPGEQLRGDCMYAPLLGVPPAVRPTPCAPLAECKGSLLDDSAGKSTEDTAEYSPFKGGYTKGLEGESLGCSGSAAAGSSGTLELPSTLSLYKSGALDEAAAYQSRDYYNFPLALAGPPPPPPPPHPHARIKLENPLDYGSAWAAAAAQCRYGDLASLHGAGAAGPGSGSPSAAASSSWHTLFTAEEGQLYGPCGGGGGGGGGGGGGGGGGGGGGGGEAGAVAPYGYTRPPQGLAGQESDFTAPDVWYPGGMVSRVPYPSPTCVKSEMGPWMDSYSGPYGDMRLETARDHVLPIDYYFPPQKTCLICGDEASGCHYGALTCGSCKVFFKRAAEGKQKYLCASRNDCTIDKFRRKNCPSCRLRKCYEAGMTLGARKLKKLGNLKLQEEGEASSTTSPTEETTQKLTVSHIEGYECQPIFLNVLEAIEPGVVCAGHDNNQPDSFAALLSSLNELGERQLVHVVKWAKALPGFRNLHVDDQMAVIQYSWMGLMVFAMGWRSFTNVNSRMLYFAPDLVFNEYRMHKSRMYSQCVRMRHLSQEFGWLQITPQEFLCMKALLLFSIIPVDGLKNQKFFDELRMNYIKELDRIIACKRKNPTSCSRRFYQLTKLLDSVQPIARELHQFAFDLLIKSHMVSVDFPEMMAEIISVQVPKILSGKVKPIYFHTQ
In words: AR binding assay (3H-R1881 displacement).
Description: The plate was then centrifuged at 3000 rpm for 30 minutes at 4° C.

Test [5] deals with T5, Progesterone Receptor (PR)-LBD and coactivator peptide (Homo sapiens, UniProt P06401).
T5 sequence (P06401 679-913 limits assumed): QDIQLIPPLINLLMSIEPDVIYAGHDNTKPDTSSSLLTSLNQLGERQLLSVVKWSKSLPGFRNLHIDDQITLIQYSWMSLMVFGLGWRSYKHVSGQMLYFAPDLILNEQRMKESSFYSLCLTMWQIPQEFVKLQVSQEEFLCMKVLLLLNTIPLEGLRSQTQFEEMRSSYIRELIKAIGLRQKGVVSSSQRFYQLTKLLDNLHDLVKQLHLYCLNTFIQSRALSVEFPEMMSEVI
The test is described as follows: PR coactivator antagonist assay. As to conditions: 2.5 nM PR-LBD, 10 nM progesterone-induced fluorescence response.

The test system of another test is IEC6 cells. The test is described as follows: Cell viability assay (CellTiterGlo). As to conditions: Rattus norvegicus, IEC-6, 144 h, read-out: IEC-6 (IC50, nM). In general terms: ATP-based viability assays read luminescence as a measure of living cells.

Bounds are passed on as bounds.

For orientation: IC50 means the concentration at which inhibition is half-maximal.

Description for IEC6 cells: Cell viability assay: LNCap, 22Rv1, MCF7, MDAMB361, T47D, and IEC6 cells were seeded at a density of 500-2000 cells/well in 96 well plates, and a ‘T0’ (timepoint 0) was included along with the assay plate. The plates were then incubated at 37° C., 5% CO2 in a cell culture incubator overnight. On the next day, the ‘T0’ plate was assayed using CellTiterGlo (Promega, Inc) according to the manufacturer's instructions. The appropriate compounds were diluted in DMSO and added to the assay plate (final DMSO concentration of 0.1-0.2%) on the next day. The assay plates were incubated for 6 days at 37° C., 5% CO2. After the incubation period, the plates were assayed using CellTiterGlo (Promega, Inc) according to the manufacturer's instructions and luminescence was read on the En Vision plate reader. […] GraphPadPrism was used to analyze the data and determine GI50/IC50 values.

`CCCCCCC(=O)O[C@]1(CC)C(=O)OCc2c1cc1n(c2=O)Cc2cc3c(CN(C)C)c(OC(=O)N4CCN(CCCCCCN(C)c5ccc([C@H]6C[C@@]7(C)[C@@H](CC[C@]7(OC(C)=O)C(C)=O)[C@@H]7CCC8=CC(=O)CCC8=C76)cc5)CC4)ccc3nc2-1` [Compound No. 12, (S)-10-((Dimethylamino)methyl)-4-ethyl-4-(heptanoyloxy)-3,14-dioxo-3,4,12,14-tetrahydro-1H-pyrano[3′,4′:6,7]indolizino[1,2-b]quinolin-9-yl 4-(6-((4-((8S,11R,13S,14S,17R)-17-acetoxy-17-acetyl-13-methyl-3-oxo-2,3,6,7,8,11,12,13,14,15,16,17-dodecahydro-1H-cyclopenta[a]phenanthren-11-yl)phenyl)(methyl)amino)hexyl)piperazine-1-carboxylate]: the IC50 was 10 to 100 nM in test [1]; under 10 nM in test [2]; under 10 nM in test [3]; over 1000 nM in the test on T47D cells; over 1000 nM in the test with LNCap cells; 101 to 1000 nM in test [4]. In the test on IEC6 cells, the IC50 is over 1000 nM. Further, in test [5], the PR antagonism entry is listed as “a (IC50 =< 10 nM)”.

For `CC[C@@]1(OC(=O)CN(C)C)C(=O)OCc2c1cc1n(c2=O)Cc2cc3c(CN(C)C)c(OC(=O)N4CCN(CCCCCCN(C)c5ccc([C@H]6C[C@@]7(C)[C@@H](CC[C@]7(OC(C)=O)C(C)=O)[C@@H]7CCC8=CC(=O)CCC8=C76)cc5)CC4)ccc3nc2-1` [Compound No. 14, (S)-10-((Dimethylamino)methyl)-4-((dimethylglycyl)oxy)-4-ethyl-3,14-dioxo-3,4,12,14-tetrahydro-1H-pyrano[3′,4′:6,7]indolizino[1,2-b]quinolin-9-yl 4-(6-((4-((8S,11R,13S,14S,17R)-17-acetoxy-17-acetyl-13-methyl-3-oxo-2,3,6,7,8,11,12,13,14,15,16,17-dodecahydro-1H-cyclopenta[a]phenanthren-11-yl)phenyl)(methyl)amino)hexyl)piperazine-1-carboxylate], the IC50 in test [1] is 10 to 100 nM; in test [2] it was under 10 nM; in test [3], under 10 nM; in the test with T47D cells, 10 to 100 nM; with LNCap cells, 101 to 1000 nM; in test [4], 10 to 100 nM. Also, the IC50 in the test on IEC6 cells is 10 to 100 nM. Moreover, the PR antagonism result in test [5] was “a (IC50 =< 10 nM)”.
